Measurements reported in US20150105252A1, “SUBSTITUTED PYRAZOLES AS HERBICIDES” (E I DU PONT DE NEMOURS AND COMPANY, priority 2013, published 2015).

Legend:
[1] = tested on: sowthistle; test: Test E preemergence; format: in vivo, Sonchus oleraceous; settings: 21 days, scale 0 to 100
Description: (§1) Seeds of plant species selected from bermudagrass (Cynodon dactylon), Surinam grass (Brachiaria decumbens), crabgrass, large (large crabgrass, Digitaria sanguinalis), crabgrass, naked (naked crabgrass, Digitaria nuda), foxtail, green (green foxtail, Setaria viridis), johnsongrass (Sorghum halepense), kochia (Kochia scoparia), morningglory (pitted morningglory, Ipomoea lacunosa), nutsedge, purple (purple nutsedge, Cyperus rotundus), ragweed (common ragweed, Ambrosia elation), mustard, black (black mustard, Brassica nigra), guineagrass (Panicum maximum), dallisgrass (Paspalum dilatatum), barnyardgrass (Echinochloa crus-galli), sandbur (southern sandbur, Cenchrus echinatus), sowthistle (common sowthistle, Sonchus oleraceous), ryegrass, Italian (Italian ryegrass, Lolium multiflorum), signalgrass (broadleaf signalgrass, Brachiaria platyphylla), dayflower, VA (Virginia (VA) dayflower, Commelina virginica), bluegrass (annual bluegrass, Poa annua), quackgrass (Elytrigia repens), mallow (common mallow, Malva sylvestris), buckwheat, wild (wild buckwheat, Polygonum convolvulus), leafy spurge (Euphorbia esula), common chickweed (Stellaria media), wild poinsettia (Euphorbia heterophylla), pigweed, palmer (palmer pigweed, Amaranthus palmeri), and pigweed (redroot pigweed, Amaranthus retroflexus) were planted into a blend of loam soil and sand and treated preemergence with test chemicals formulated in a non-phytotoxic solvent mixture which included a surfactant.
(§2) Treated plants and controls were maintained in a greenhouse for 21 days, after which time all species were compared to controls and visually evaluated. Plant response ratings, summarized in Table E, are based on a scale of 0 to 100 where 0 is no effect and 100 is complete control. A dash (-) response means no test result.

[2] = tested on: bluegrass; test: Test E preemergence; format: in vivo, Poa annua; settings: 21 days, scale 0 to 100
Description: as §1, §2

[3] = tested on: common chickweed; test: Test E preemergence; format: in vivo, Stellaria media; settings: 21 days, scale 0 to 100
Description: as §1, §2

[4] = tested on: Italian ryegrass; test: Test A postemergence; format: in vivo, Lolium multiflorum
Summary of the method: (§3)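 After sowing in a sand–loam mix, pots received compound preemergence by directed soil spray, or postemergence once plants reached the one- to two-leaf stage (2–10 cm). Formulation contained surfactant in a non-phytotoxic solvent. Injury was scored visually after ~10 greenhouse days, 0–100 scale.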

[5] = tested on: kochia; test: Test A preemergence; format: in vivo, Kochia scoparia
Summary of the method: as §3

[6] = tested on: oat, wild; test: Test D preemergence; format: in vivo, Avena fatua; settings: scale 0 to 100
Description: Seeds of plant species selected from bluegrass (annual bluegrass, Poa annua), blackgrass (Alopecurus myosuroides), canarygrass (littleseed canarygrass, Phalaris minor), chickweed (common chickweed, Stellaria media), galium (catchweed bedstraw, Galium aparine), bromegrass, downy (downy bromegrass, Bromus tectorum), field poppy (Papaver rhoeas), field violet (Viola arvensis), foxtail, green (green foxtail, Setaria viridis), deadnettle (henbit deadnettle, Lamium amplexicaule), ryegrass, Italian (Italian ryegrass, Lolium multiflorum), kochia (Kochia scoparia), lambsquarters (Chenopodium album), oilseed rape (Brassica napus), pigweed (redroot pigweed, Amaranthus retroflexus), chamomile (scentless chamomile, Matricaria inodora), speedwell (bird's-eye speedwell, Veronica persica), barley, spring (spring barley, Hordeum vulgare), wheat, spring (spring wheat, Triticum aestivum), buckwheat, wild (wild buckwheat, Polygonum convolvulus), mustard, wild (wild mustard, Sinapis arvensis), oat, wild (wild oat, Avena fatua), radish, wild (wild radish, Raphanus raphanistrum), windgrass (Apera spica-venti), Russian thistle (Salsola kali), barley, winter (winter barley, Hordeum vulgare), and wheat, winter (winter wheat, Triticum aestivum) were planted into a silt loam soil and treated preemergence with test chemicals formulated in a non-phytotoxic solvent mixture which included a surfactant.
At the same time, these species were planted in pots containing Redi-Earth® planting medium (Scotts Company, 14111 Scottslawn Road, Marysville, Ohio 43041) comprising spaghnum peat moss, vermiculite, wetting agent and starter nutrients and treated with postemergence applications of the test chemicals formulated in the same manner. Plants ranged in height from 2 to 18 cm (1- to 4-leaf stage). Treated plants and controls were maintained in a controlled growth environment for 14 to 21 days after which time all species were compared to controls and visually evaluated. Plant response ratings, summarized in Table D, are based on a scale of 0 to 100 where 0 is no effect and 100 is complete control. A dash (-) response means no test result.

[7] = tested on: rice; test: Test C flooded paddy test; format: in vivo, Oryza sativa; settings: Flood
Summary of the method: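 In-water treatment: compound dosed into 3 cm flood over soil, water level unchanged throughout. Controls run alongside; visual assessment at day 13–15.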

[8] = Postemergence, 500 g ai/ha, 0 to 100 scale (0 no effect, 100 complete control)
[9] = postemergence, 125 g ai/ha, about 10 days, visual rating on 0 to 100 scale (0 no effect, 100 complete control)
[10] = 125 g ai/ha, visual injury, 0 to 100 scale, approx. 10 days
[11] = 500 g ai/ha, visual injury after approx. 10 days, 0 to 100 scale (0 no effect, 100 complete control)
[12] = 31 g ai/ha, scale 0 to 100 (0 no effect, 100 complete control)
[13] = 62 g ai/ha, scale 0 to 100 (0 no effect, 100 complete control)
[14] = 125 g ai/ha, scale 0 to 100 (0 no effect, 100 complete control)

SMILES: CCc1cc(C(=O)NCC(F)(F)F)nn1Cc1ccnc(C(F)(F)F)c1 [Compound 78, 5-ethyl-N-(2,2,2-trifluoroethyl)-1-[[(2-trifluoromethyl)-4-pyridinyl]methyl]-1H-pyrazole-3-carboxamide]
- Plant response rating, Sowthistle ([1]; 62 g ai/ha): 100
- Plant response rating, Sowthistle ([1]; 125 g ai/ha): 100
- Plant response rating, Sowthistle ([1]; 250 g ai/ha): 100
- Plant response rating, Bluegrass ([2]; 16 g ai/ha): 40
- Plant response rating, Bluegrass ([2]; 31 g ai/ha): 75
- Plant response rating, Bluegrass ([2]; 62 g ai/ha): 90
- Plant response rating, Bluegrass ([2]; 125 g ai/ha): 100
- Plant response rating, Bluegrass ([2]; 250 g ai/ha): 100

SMILES: CCc1cc(C(=O)NC(C)C)nn1Cc1ccnc(C(F)(F)F)c1 [Compound 103]
- Plant response rating, Bluegrass ([2]; 16 g ai/ha): 40
- Plant response rating, Bluegrass ([2]; 31 g ai/ha): 90
- Plant response rating, Bluegrass ([2]; 62 g ai/ha): 95
- Plant response rating, Bluegrass ([2]; 125 g ai/ha): 98
- Plant response rating, Bluegrass ([2]; 250 g ai/ha): 100
- Plant response rating, Common Chickweed ([3]; 16 g ai/ha): 98
- Plant response rating, Common Chickweed ([3]; 31 g ai/ha): 100
- Plant response rating, Common Chickweed ([3]; 62 g ai/ha): 100
- Plant response rating, Common Chickweed ([3]; 125 g ai/ha): 100
- Plant response rating, Common Chickweed ([3]; 250 g ai/ha): 100

SMILES: CCOc1cc(C(=O)NCC(F)(F)F)nn1Cc1ccnc(C(F)(F)F)c1 [Compound 104]
- Plant response rating, Bluegrass ([2]; 16 g ai/ha): 85
- Plant response rating, Bluegrass ([2]; 31 g ai/ha): 100
- Plant response rating, Bluegrass ([2]; 62 g ai/ha): 100
- Plant response rating, Bluegrass ([2]; 125 g ai/ha): 100
- Plant response rating, Bluegrass ([2]; 250 g ai/ha): 100
- Plant response rating, Common Chickweed ([3]; 16 g ai/ha): 100
- Plant response rating, Common Chickweed ([3]; 31 g ai/ha): 100
- Plant response rating, Common Chickweed ([3]; 62 g ai/ha): 100
- Plant response rating, Common Chickweed ([3]; 125 g ai/ha): 100
- Plant response rating, Common Chickweed ([3]; 250 g ai/ha): 100

SMILES: CCCc1cc(C(=O)NCC(F)(F)F)nn1Cc1ccnc(C(F)(F)F)c1 [Compound 105]
- Plant response rating, Sowthistle ([1]; 16 g ai/ha): 100
- Plant response rating, Sowthistle ([1]; 31 g ai/ha): 100
- Plant response rating, Sowthistle ([1]; 62 g ai/ha): 100
- Plant response rating, Sowthistle ([1]; 125 g ai/ha): 100
- Plant response rating, Sowthistle ([1]; 250 g ai/ha): 100
- Plant response rating, Bluegrass ([2]; 16 g ai/ha): 40
- Plant response rating, Bluegrass ([2]; 31 g ai/ha): 70
- Plant response rating, Bluegrass ([2]; 62 g ai/ha): 100
- Plant response rating, Bluegrass ([2]; 125 g ai/ha): 100
- Plant response rating, Bluegrass ([2]; 250 g ai/ha): 100
- Plant response rating, Common Chickweed ([3]; 16 g ai/ha): 98
- Plant response rating, Common Chickweed ([3]; 31 g ai/ha): 100
- Plant response rating, Common Chickweed ([3]; 62 g ai/ha): 100
- Plant response rating, Common Chickweed ([3]; 125 g ai/ha): 100
- Plant response rating, Common Chickweed ([3]; 250 g ai/ha): 100

SMILES: CCONC(=O)c1cc(CC)n(Cc2cc(C(F)(F)F)no2)n1 [Compound 125]
- Italian Ryegrass plant response rating [4, 8]: 80
- Italian Ryegrass plant response rating [4, 9]: 20
- Kochia plant response rating [5, 10]: 40
- Kochia plant response rating [5, 11]: 100

SMILES: CCOc1cc(C(=O)NC2CC2)nn1Cc1ccnc(OC(F)F)c1 [Compound 133]
- Italian Ryegrass plant response rating [4, 8]: 80
- Italian Ryegrass plant response rating [4, 9]: 60
- Kochia plant response rating [5, 10]: 100
- Kochia plant response rating [5, 11]: 100

SMILES: CCCc1cc(C(=O)NCC(F)(F)F)nn1Cc1cc(C(F)(F)F)nn1C [Compound 138]
- Plant response rating, Oat, Wild ([6]; 62 g ai/ha): 35
- Plant response rating, Oat, Wild ([6]; 125 g ai/ha): 75
- Plant response rating, Oat, Wild ([6]; 250 g ai/ha): 100

SMILES: CCCNC(=O)c1cc(CCCl)n(Cc2ccnc(C(F)(F)F)c2)n1 [Compound 145]
- Plant response rating, Rice [7, 12]: 0
- Plant response rating, Rice [7, 13]: 20
- Plant response rating, Rice ([7]; 125 g ai/ha, scale 0 to 100): 25
- Plant response rating, Rice ([7]; 250 g ai/ha, scale 0 to 100): 40

SMILES: CCOc1cc(C(=O)NC(C)C)nn1Cc1ccnc(C(F)(F)F)c1 [Compound 188]
- Plant response rating, Oat, Wild ([6]; 62 g ai/ha): 100
- Plant response rating, Oat, Wild ([6]; 125 g ai/ha): 100
- Plant response rating, Oat, Wild ([6]; 250 g ai/ha): 100

SMILES: CCOc1cc(C(=O)NC2CC2)nn1Cc1ccnc(C(F)(F)F)c1 [Compound 189]
- Plant response rating, Sowthistle ([1]; 4 g ai/ha): 98
- Plant response rating, Sowthistle ([1]; 8 g ai/ha): 98
- Plant response rating, Sowthistle ([1]; 16 g ai/ha): 100
- Plant response rating, Sowthistle ([1]; 31 g ai/ha): 100
- Plant response rating, Sowthistle ([1]; 62 g ai/ha): 100
- Plant response rating, Bluegrass ([2]; 4 g ai/ha): 0
- Plant response rating, Bluegrass ([2]; 8 g ai/ha): 0
- Plant response rating, Bluegrass ([2]; 16 g ai/ha): 50
- Plant response rating, Bluegrass ([2]; 31 g ai/ha): 50
- Plant response rating, Bluegrass ([2]; 62 g ai/ha): 80
- Plant response rating, Oat, Wild ([6]; 62 g ai/ha): 45
- Plant response rating, Oat, Wild ([6]; 125 g ai/ha): 75
- Plant response rating, Oat, Wild ([6]; 250 g ai/ha): 100

SMILES: CCONC(=O)c1cc(OCC)n(Cc2ccnc(C(F)(F)F)c2)n1 [Compound 195]
- Plant response rating, Rice [7, 12]: 0
- Plant response rating, Rice [7, 13]: 0
- Plant response rating, Rice [7, 14]: 0
- Plant response rating, Rice ([7]; 250 g ai/ha, scale 0 to 100): 20

SMILES: CCc1cc(C(=O)NC2CC2)nn1Cc1ccnc(OCC(F)(F)F)c1 [Compound 200]
- Plant response rating, Rice [7, 12]: 0
- Plant response rating, Rice [7, 13]: 0
- Plant response rating, Rice [7, 14]: 15
- Plant response rating, Rice ([7]; 250 g ai/ha, scale 0 to 100): 20

SMILES: CCc1cc(C(=O)NCC(F)(F)F)nn1Cc1cc(OC(F)F)nn1C [Compound 206]
- Italian Ryegrass plant response rating ([4]; Postemergence, 125 g ai/ha, 0 to 100 scale, 0 no effect, 100 complete control): 0
- Italian Ryegrass plant response rating [4, 8]: 50
- Kochia plant response rating (0 to 100 scale) ([5]; 125 g ai/ha, visual injury approx. 10 days after treatment): 50

SMILES: CCc1cc(C(=O)NC2CC2)nn1Cc1cc(C(F)(F)C(F)(F)F)nn1C [Compound 226]
- Plant response rating, Rice [7, 12]: 0
- Plant response rating, Rice [7, 13]: 0
- Plant response rating, Rice [7, 14]: 0
